The target of this assay is Bet BRD4 full length bromo-domain protein (Homo sapiens, UniProt O60885). In words: Bet bromodomain TR-FRET assay (displacement of acetyl histone peptide). The assay is classed as binding. The conditions noted are these: Bet BRD4 full length bromodomain protein, 300 nM acetyl histone peptide substrate, read-out: IC50.

For `COC(=O)c1ccc(S(=O)(=O)Nc2cc(C(=O)NC3CCN(C)CC3)c3c(c2)C2(CCC2)C(=O)N3)c(F)c1` [Compound 80, Methyl 3-fluoro-4-(N-(7′-((1-methylpiperidin-4-yl)carbamoyl)-2′-oxospiro[cyclobutane-1,3′-indolin]-5′-yl)sulfamoyl)benzoate], the IC50 was above 1000 nM.

On to `CN1CCC(NC(=O)c2cc(NS(=O)(=O)c3ccc(C#N)cc3F)cc3c2NC(=O)C32CCC2)CC1` [Compound 81, 5′-((4—Cyano-2-fluorophenyl)sulfonamido)-N-(1-methylpiperidin-4-yl)-2′-oxospiro[cyclobutane-1,3′-indoline]-7′-carboxamide], for which the IC50 is above 1000 nM.

`CN1CCC(NC(=O)c2cc(NS(=O)(=O)C3CCCCC3)cc3c2NC(=O)C32CCC2)CC1` [Compound 83, 5′-(Cyclohexanesulfonamido)-N-(1-methylpiperidin-4-yl)-2′-oxospiro[cyclobutane-1,3′-indoline]-7′-carboxamide]: the IC50 was 600 to 1000 nM.

`CCOc1ccccc1S(=O)(=O)Nc1cc(C(=O)NC2CCN(C)CC2)c2c(c1)C1(CCC1)C(=O)N2` [Compound 84, 5′-(2-Ethoxyphenylsulfonamido)-N-(1-methylpiperidin-4-yl)-2′-oxospiro[cyclobutane-1,3′-indoline]-7′-carboxamide]: the IC50 lay within 600 to 1000 nM.

With `CN1CCC(NC(=O)c2cc(NS(=O)(=O)N3CCCCC3)cc3c2NC(=O)C32CCC2)CC1` [Compound 85, N-(1-methylpiperidin-4-yl)-2′-oxo-5′-(piperidine-1-sulfon amido)spiro[cyclobutane-1,3′-indoline]-7′-carboxamide], the IC50 is above 1000 nM.

`CN1CCC(NC(=O)c2cc(NS(=O)(=O)c3cc(F)ccc3F)cc3c2NC(=O)C32CCC2)CC1` [Compound 86, 5′-(2,5-Difluorophenylsulfonamido)-N-(1-methylpiperidin-4-yl)-2′-oxospiro[cyclobutane-1,3′-indoline]-7′-carboxamide]: the IC50 is below 600 nM.

For the compound `COc1ccccc1S(=O)(=O)Nc1cc(Cc2cccnc2)c2c(c1)C1(CCC1)C(=O)N2` [Compound 87, 2-Methoxy-N-(2′-oxo-7′-(pyridin-3-ylmethyl)spiro[cyclobutane-1,3′-indolin]-5′-yl)benzenesulfonamide], the IC50 was below 600 nM.

Take `O=C1Nc2c(-c3ccc4c(c3)CNCC4)cc(NS(=O)(=O)c3ccc(F)cc3F)cc2C12CCC2` [Compound 88, 2,4-Difluoro-N-(2′-oxo-7′-(1,2,3,4-tetrahydroisoquinolin-7-yl)spiro-[cyclobutane-1,3′-indolin]-5′-yl)benzenesulfonamide]: the IC50 is below 600 nM.

Take `CN1CCC(c2cc(NS(=O)(=O)c3ccc(F)cc3F)cc3c2NC(=O)C32CCC2)CC1` [Compound 89, 2,4-Difluoro-N-(7′-(1-methylpiperidin-4-yl)-2′-oxospiro[cyclobutane-1,3′-indolin]-5′-yl)benzenesulfonamide]: the IC50 is below 600 nM.

As to `COc1ccc(S(=O)(=O)Nc2cc(C3CCNCC3)c3c(c2)C2(CCC2)C(=O)N3)c(OC)c1` [Compound 92, 2,4-Dimethoxy-N-(2′-oxo-7′-(piperidin-4-yl)spiro[cyclobutane-1,3′-indolin]-5′-yl)benzenesulfonamide], the half-inhibitory concentration (IC50) is below 600 nM.

As to `COc1ccc(S(=O)(=O)Nc2cc(Cc3ccccc3)c3c(c2)C2(CCC2)C(=O)N3)c(F)c1` [Compound 93, N-(7′-benzyl-2′-oxospiro[cyclobutane-1,3′-indolin]-5′-yl)-2-fluoro-4-methoxybenzenesulfonamide], the IC50 is below 600 nM.

On to `COc1cc(F)ccc1S(=O)(=O)Nc1cc(Cc2ccccc2)c2c(c1)C1(CCC1)C(=O)N2` [Compound 94, N-(7′-benzyl-2′-oxospiro[cyclobutane-1,3′-indolin]-5′-yl)-4-fluoro-2-methoxybenzenesulfonamide], for which the IC50 is below 600 nM.

On to `COc1ccc(S(=O)(=O)Nc2cc(Cc3cccc(F)c3)c3c(c2)C2(CCC2)C(=O)N3)c(F)c1` [Compound 95, 2-Fluoro-N-(7′-(3-fluorobenzyl)-2′-oxospiro[cyclobutane-1,3′-indolin]-5′-yl)-4-methoxybenzenesulfonamide], for which the IC50 is below 600 nM.

`COc1cc(F)ccc1S(=O)(=O)Nc1cc(Cc2cccc(F)c2)c2c(c1)C1(CCC1)C(=O)N2` [Compound 96, 4-Fluoro-N-(7′-(3-fluorobenzyl)-2′-oxospiro[cyclobutane-1,3′-indolin]-5′-yl)-2-methoxybenzenesulfonamide]: the IC50 was below 600 nM.

As for `COc1ccc(S(=O)(=O)Nc2cc(C3CCN(C)CC3)c3c(c2)C2(CCC2)C(=O)N3)c(F)c1` [Compound 98, 2-Fluoro-4-methoxy-N-(7′-(1-methylpiperidin-4-yl)-2′-oxospiro-[cyclobutane-1,3′-indolin]-5′-yl)benzenesulfonamide], the half-maximal inhibitory concentration (IC50) was below 600 nM.

On to `O=C1Nc2c(-c3ccc(O)nc3)cc(NS(=O)(=O)c3ccc(F)cc3F)cc2C12CCC2` [Compound 99, 2,4-Difluoro-N-(7′-(6-hydroxypyridin-3-yl)-2′-oxospiro [cyclobutane-1,3′-indolin]-5′-yl)benzenesulfonamide], for which the IC50 fell in the range of 600 to 1000 nM.

`O=C1Nc2c(-c3ccnc(O)c3)cc(NS(=O)(=O)c3ccc(F)cc3F)cc2C12CCC2` [Compound 100, 2,4-difluoro-N-(7′-(2-hydroxypyridin-4-yl)-2′-oxospiro[cyclobutane-1,3′-indolin]-5′-yl)benzenesulfonamide]: the IC50 was above 1000 nM.

As for `O=C1Nc2c(NC3CCNCC3F)cc(NS(=O)(=O)c3ccc(F)cc3F)cc2C12CCC2` (centres unmarked) [Compound 102, 2,4-Difluoro-N-(7′-((3-fluoropiperidin-4-yl)amino)-2′-oxospiro[cyclobutane-1,3′-indolin]-5′-yl)benzenesulfonamide], the IC50 was in the range of 600 to 1000 nM.

On to `CC1(C)CNCCC1Nc1cc(NS(=O)(=O)c2ccc(F)cc2F)cc2c1NC(=O)C21CCC1` (centres unmarked) [Compound 103, N-(7′-((3,3-dimethylpiperidin-4-yl)amino)-2′-oxospiro[cyclobutane-1,3′-indolin]-5′-yl)-2,4-difluorobenzenesulfonamide], for which the 50% inhibitory concentration (IC50) was below 600 nM.

Regarding `O=C1CC(c2cc(NS(=O)(=O)c3ccc(F)cc3F)cc3c2NC(=O)C32CCC2)CCN1` (centres unmarked) [Compound 104, 2,4-Difluoro-N-(2′-oxo-7′-(2-oxopiperidin-4-yl)spiro[cyclobutane-1,3′-indolin]-5′-yl)benzenesulfonamide], the IC50 was below 600 nM.

Take `O=C1CCC(c2cc(NS(=O)(=O)c3ccc(F)cc3F)cc3c2NC(=O)C32CCC2)CN1` (centres unmarked) [Compound 105, 2,4-Difluoro-N-(2′-oxo-7′-(6-oxopiperidin-3-yl)spiro [cyclobutane-1,3′-indolin]-5′-yl)benzenesulfonamide]: the IC50 was below 600 nM.

For `CN1CCc2ccc(-c3cc(NS(=O)(=O)c4ccc(F)cc4F)cc4c3NC(=O)C43CCC3)cc2C1` [Compound 106, 2,4-Difluoro-N-(7′-(2-methyl-1,2,3,4-tetrahydroisoquinolin-7-yl)-2′-oxospiro[cyclobutane-1,3′-indolin]-5′-yl)benzenesulfonamide], the IC50 is below 600 nM.

Take `COc1ccccc1S(=O)(=O)Nc1cc(C(C)c2ccccc2)c2c(c1)C1(CCC1)C(=O)N2` (centres unmarked) [Compound 113, 2-Methoxy-N-(2′-oxo-7′-(1-phenylethyl)spiro [cyclobutane-1,3′-indolin]-5′-yl)benzenesulfonamide]: the IC50 is below 600 nM.

As for `CN1CCC(CCc2cc(NS(=O)(=O)c3ccc(F)cc3F)cc3c2NC(=O)C32CCC2)CC1` [Compound 116, 2,4-Difluoro-N-(7′-(2-(1-methylpiperidin-4-yl)ethyl)-2′-oxospiro-[cyclobutane-1,3′-indolin]-5′-yl)benzenesulfonamide], the IC50 was below 600 nM.

With `COc1ccccc1NC(=O)Nc1cc(C2CC2)c2c(c1)C1(CCC1)C(=O)N2` [Compound 121, 1-(7′—Cyclopropyl-2′-oxospiro[cyclobutane-1,3′-indolin]-5′-yl)-3-(2-methoxyphenyl)urea], the IC50 was below 600 nM.

For `COc1ccccc1S(=O)(=O)Nc1cc(C(C)c2cccnc2)c2c(c1)C1(CCC1)C(=O)N2` (centres unmarked) [Compound 122, 2-Methoxy-N-(2′-oxo-7′-(1-(pyridin-3-yl)ethyl)spiro[cyclobutane-1,3′-indolin]-5′-yl)benzenesulfonamide], the IC50 was below 600 nM.

As to `COc1ccccc1S(=O)(=O)Nc1cc(C(C)c2ccccn2)c2c(c1)C1(CCC1)C(=O)N2` (centres unmarked) [Compound 123, 2-Methoxy-N-(2′-oxo-7′-(1-(pyridin-2-yl)ethyl)spiro [cyclobutane-1,3′-indolin]-5′-yl)benzenesulfonamide], the IC50 was below 600 nM.

As for `COc1ccccc1S(=O)(=O)Nc1cc(Oc2ccccn2)c2c(c1)C1(CCC1)C(=O)N2` [Compound 124, 2-Methoxy-N-(2′-oxo-7′-(pyridin-2-yloxy)spiro[cyclobutane-1,3′-indolin]-5′-yl)benzenesulfonamide], the IC50 was below 600 nM.

In the case of `COc1ccccc1S(=O)(=O)Nc1cc(C(F)c2ccccc2)c2c(c1)C1(CCC1)C(=O)N2` (centres unmarked) [Compound 125, N-(7′-(fluoro(phenyl)methyl)-2′-oxospiro[cyclobutane-1,3′-indolin]-5′-yl)-2-methoxybenzenesulfonamide], the concentration for half-maximal inhibition (IC50) is below 600 nM.

For the compound `CC(c1ccccc1)c1cc(NS(=O)(=O)c2ccc(F)cc2F)cc2c1NC(=O)C21CCC1` (centres unmarked) [Compound 126, 2,4-Difluoro-N-(2′-oxo-7′-(1-phenylethyl)spiro[cyclobutane-1,3′-indolin]-5′-yl)benzenesulfonamide], the IC50 lay within 600 to 1000 nM.

`COc1ccc(F)cc1S(=O)(=O)Nc1cc(OC2CCN(C)CC2)c2c(c1)C1(CCC1)C(=O)N2` [Compound 129, 5-Fluoro-2-methoxy-N-(7′-((1-methylpiperidin-4-yl)oxy)-2′-oxospiro[cyclobutane-1,3′-indolin]-5′-yl)benzenesulfonamide]: the IC50 is below 600 nM.

For the compound `CN1CCC(Oc2cc(NS(=O)(=O)c3ccc(Cl)cc3F)cc3c2NC(=O)C32CCC2)CC1` [Compound 130, 4-Chloro-2-fluoro-N-(7′-((1-methylpiperidin-4-yl)oxy)-2′-oxospiro[cyclobutane-1,3′-indolin]-5′-yl)benzenesulfonamide], the IC50 is below 600 nM.

(Values after US10336697B2, “Spiro[cyclobutane-1,3′-indolin]-2′-one derivatives as bromodomain inhibitors” (Orion Corporation, priority 2015, dated 2019).)
